In PubChem BioAssay (NCI):
“And” between values parts separate entries of the source, which are not always exact repeats. Identical values can stand only once.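 Where inhibition never reached the appropriate level, the endpoint shown equals the highest concentration tested. Otherwise, values were interpolated linearly from a five-concentration, 48-hour dose response in 96-well plates. The concentration for 50% growth inhibition is given as GI50. At the TGI there is no net growth.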 Where a SMILES comes first, the peptide text is derived from it. [ ]: non-standard residue; d: D form. The star is where a group is joined. ξ: configuration not given here. NMeY = CN[C@@H](Cc1ccc(O)cc1)C(=O)O; Cbz = O=C(OCc1ccccc1)*; ξA = CC(N)C(=O)O

Legend:
Assay in all cases: inhibition of tumour cell growth, NCI panel, 48 h
[1] = test system: A549 NSCLC
[2] = test system: HOP-92 NSCLC
[3] = test system: SK-MEL-5 melanoma
[4] = test system: MDA-MB-231 breast
[5] = test system: A498 renal
[6] = test system: HT29 colon
[7] = test system: CAKI-1 renal
[8] = test system: OVCAR-5 ovarian
[9] = test system: HOP-62 NSCLC
[10] = test system: BT-549 breast

Compound: COc1ccc(C[C@@H](C(=O)NCC(N)=O)N(C)C(=O)[C@@H]2CCCN2C(=O)[C@H](CC(C)C)NC(=O)C(C)NC(=O)OCc2ccccc2)cc1 (stereo not given in full) (Cbz-[ξA]LP[NMeY](Me)G-NH2)
- TGI [1]: > 100 µM
- TGI [2]: > 100 µM
- TGI [3]: > 100 µM
- TGI [4]: > 100 µM
- TGI [5]: > 100 µM
- TGI [6]: > 100 µM
- TGI [7]: > 100 µM
- TGI [8]: > 100 µM
- TGI [9]: > 100 µM
- TGI [10]: > 100 µM

Compound: CC1CN=C(c2cccc(OCc3ccc(COc4cccc(C5=NCC(C)N5)c4)cc3)c2)N1 (stereo not given)
- TGI [1]: > 100 µM
- TGI [2]: > 100 µM
- TGI [3]: > 100 µM
- TGI [4]: > 100 µM
- TGI [5]: > 100 µM
- TGI [6]: > 100 µM
- TGI [7]: > 100 µM
- TGI [8]: > 100 µM
- TGI [9]: > 100 µM
- TGI [10]: > 100 µM

Compound: NC(N)=N/N=C(\c1ccc(Cl)cc1)C1CC1
- TGI [1]: > 100 µM
- TGI [2]: 62.6 µM
- TGI [3]: 29 µM
- TGI [4]: 34.9 µM
- TGI [5]: 32.3 µM
- TGI [6]: 32.2 µM
- TGI [7]: > 100 µM
- TGI [8]: 39.3 µM
- TGI [9]: 37.7 µM
- TGI [10]: 49.6 µM

Compound: CCCCCCCCCCCCCCCCOCC(CC(F)(F)P(=O)(O)O)OC(C)=O (stereo not given)
- TGI [1]: > 50 µM
- TGI [2]: > 50 µM
- TGI [3]: > 50 µM
- TGI [4]: > 50 µM
- TGI [5]: > 50 µM
- TGI [6]: > 50 µM
- TGI [7]: > 50 µM
- TGI [8]: > 50 µM
- TGI [9]: > 50 µM
- TGI [10]: > 50 µM

Compound: CN(C)CCCn1c2ccccc2c2cnccc21
- TGI [1]: > 100 µM
- TGI [2]: > 100 µM
- TGI [3]: 42.5 µM
- TGI [4]: > 100 µM
- TGI [5]: > 100 µM
- TGI [6]: > 100 µM
- TGI [7]: > 100 µM
- TGI [8]: > 100 µM
- TGI [9]: > 100 µM
- TGI [10]: > 100 µM

Compound: COc1cn2c(cc1=O)COc1ccc(-c3ccccc3)cc1-2
- TGI [1]: 99.5 µM
- TGI [2]: > 100 µM
- TGI [3]: > 76 µM
- GI50 [4]: > 100 µM
- TGI [4]: > 100 µM
- GI50 [5]: 33 µM
- TGI [5]: > 100 µM
- TGI [6]: > 100 µM
- TGI [7]: > 100 µM
- TGI [8]: > 100 µM
- TGI [9]: > 100 µM
- TGI [10]: > 82.9 µM

Compound: Oc1ccc2ccccc2c1-c1nnc(CCCCCCCCc2nnc(-c3c(O)ccc4ccccc34)o2)o1
- TGI [1]: 25 µM and 32.9 µM
- TGI [2]: > 79 µM
- GI50 [3]: 3.15 µM
- TGI [3]: 8.59 µM and 44.2 µM
- GI50 [4]: 0.583 µM
- GI50 [5]: 14.2 µM
- TGI [5]: 25 µM and 41 µM
- GI50 [6]: 0.36 µM
- GI50 [7]: 0.698 µM
- TGI [7]: 3.11 µM
- GI50 [8]: 19.9 µM
- TGI [8]: 25 µM and > 100 µM
- GI50 [9]: > 25 µM
- TGI [9]: > 25 µM and 12.4 µM
- TGI [10]: > 100 µM

Compound: CC1=NN(c2ccc(C)cc2)C2(C1)SCC(=O)N2c1nc2ccccc2s1 (stereo not given)
- TGI [1]: > 100 µM
- TGI [2]: > 100 µM
- TGI [3]: 24.2 µM
- TGI [4]: 41.4 µM
- TGI [5]: 70.6 µM
- TGI [6]: > 100 µM
- TGI [7]: > 100 µM
- TGI [8]: > 100 µM
- TGI [9]: > 100 µM
- TGI [10]: > 100 µM

Compound: O=C1c2cc([N+](=O)[O-])ccc2NC2C(O)c3ccccc3N12 (stereo not given)
- TGI [1]: > 100 µM
- TGI [2]: 53.6 µM
- TGI [3]: > 100 µM
- TGI [4]: > 100 µM
- TGI [5]: 41.8 µM
- TGI [6]: > 100 µM
- TGI [7]: 54 µM
- TGI [8]: > 100 µM
- TGI [9]: > 100 µM
- TGI [10]: 61.4 µM

Compound: CCCCn1cc(C(=O)O)c(=O)c2c3sccc3ccc21
- TGI [1]: > 100 µM
- TGI [2]: > 100 µM
- TGI [3]: > 100 µM
- TGI [4]: > 100 µM
- TGI [5]: > 100 µM
- TGI [6]: > 100 µM
- TGI [7]: > 100 µM
- TGI [8]: > 100 µM
- TGI [9]: > 100 µM
- TGI [10]: > 100 µM

Compound: C=CCc1c(O)c2ccccc2[nH]c1=O
- TGI [1]: > 100 µM
- TGI [2]: > 100 µM
- TGI [3]: > 100 µM
- TGI [4]: > 100 µM
- TGI [5]: > 100 µM
- TGI [6]: > 100 µM
- TGI [7]: > 100 µM
- TGI [8]: > 100 µM
- TGI [9]: > 100 µM
- TGI [10]: > 100 µM

Compound: Oc1c2cccc1Cc1cccc3c1OCCOCCOCCOCCOc1c(cccc1Cc1cccc(c1O)C3)C2
- TGI [1]: > 100 µM
- TGI [2]: > 100 µM
- TGI [3]: > 100 µM
- TGI [4]: > 100 µM
- TGI [5]: > 100 µM
- TGI [6]: > 100 µM
- TGI [7]: > 100 µM
- TGI [8]: > 100 µM
- TGI [9]: > 100 µM
- TGI [10]: > 100 µM

Compound: CN(C)c1ccc(/C=C(\NC(=O)c2ccccc2)C(=O)Nc2ccccc2C(=O)NN2C(=O)CSC2c2ccc(N(C)C)cc2)cc1 (stereo not given)
- TGI [1]: > 100 µM
- TGI [2]: > 100 µM
- TGI [3]: > 100 µM
- TGI [4]: > 100 µM
- TGI [5]: > 100 µM
- TGI [6]: > 100 µM
- TGI [7]: > 100 µM
- TGI [8]: > 100 µM
- TGI [9]: > 100 µM
- TGI [10]: > 100 µM

Compound: CC(C)(C)OC(=O)NC(Cc1ccccc1)C(=O)N[C@H]1c2ccsc2/C(=N/O)[C@H]1O (stereo not given in full)
- TGI [1]: > 100 µM
- TGI [2]: > 100 µM
- TGI [3]: > 100 µM
- TGI [4]: > 100 µM
- TGI [5]: > 100 µM
- TGI [6]: > 100 µM
- TGI [7]: > 100 µM
- TGI [8]: > 100 µM
- TGI [9]: > 100 µM
- TGI [10]: > 100 µM

Compound: CCCCC[C@H](O)[C@H](C)C=C1SCCCS1
- TGI [1]: > 100 µM
- TGI [2]: > 100 µM
- TGI [3]: > 100 µM
- TGI [4]: > 100 µM
- TGI [5]: > 100 µM
- TGI [6]: > 100 µM
- TGI [7]: > 100 µM
- TGI [8]: > 100 µM
- TGI [9]: > 100 µM
- TGI [10]: > 100 µM

Compound: O=C1/C(=C/c2ccccc2S)N=C(c2ccccc2)N1c1ccc2c(c1)Sc1cc(N3C(=O)/C(=C/c4ccccc4S)N=C3c3ccccc3)ccc1N2
- TGI [1]: 35 µM
- TGI [2]: 34.5 µM
- TGI [3]: 30.7 µM
- TGI [4]: 89.9 µM
- TGI [5]: 35.4 µM
- TGI [6]: > 100 µM
- TGI [7]: 41.7 µM
- TGI [8]: 35.6 µM
- TGI [9]: 72.7 µM
- TGI [10]: 73.5 µM

Compound: N#Cc1c(=O)c2cccnc2n2c1[nH]c1ccccc12
- TGI [1]: > 100 µM
- TGI [2]: 68.4 µM
- TGI [4]: > 100 µM
- TGI [5]: > 100 µM
- TGI [6]: > 100 µM
- TGI [7]: > 100 µM
- TGI [8]: > 100 µM
- TGI [9]: > 100 µM
- TGI [10]: > 100 µM

Compound: Cc1ccc(S(=O)(=O)Nn2c(-c3ccccc3)c(C#N)c(-c3ccc([N+](=O)[O-])cc3)c(C#N)c2=O)cc1
- TGI [1]: > 100 µM
- TGI [2]: > 100 µM
- TGI [3]: > 100 µM
- TGI [4]: > 100 µM
- TGI [5]: > 100 µM
- TGI [6]: > 100 µM
- TGI [7]: > 100 µM
- TGI [8]: > 100 µM
- TGI [9]: > 100 µM
- TGI [10]: > 100 µM

Compound: O=C1C/C(=C\O)C(=O)c2ccccc2N1
- TGI [1]: > 100 µM
- TGI [2]: > 100 µM
- TGI [3]: > 100 µM
- TGI [4]: > 100 µM
- TGI [5]: > 100 µM
- TGI [6]: > 100 µM
- TGI [7]: > 100 µM
- TGI [8]: > 100 µM
- TGI [9]: > 100 µM
- TGI [10]: > 100 µM

Compound: Cc1[nH]c(=O)nc(N/N=C/c2ccc(Cl)c(Cl)c2)c1C(=O)Nc1ccc(Cl)c(Cl)c1
- TGI [1]: 38.9 µM
- TGI [2]: 39.3 µM
- TGI [3]: 22.8 µM
- TGI [4]: 15.2 µM
- TGI [5]: 7.92 µM
- TGI [6]: > 46.5 µM
- TGI [7]: 33.3 µM
- TGI [8]: > 46.3 µM
- TGI [9]: 24.8 µM
- TGI [10]: 39.7 µM

Compound: O=c1c(Cc2ccc(Cl)cc2)nnc2sc(-c3ccc([N+](=O)[O-])cc3)nn12
- TGI [1]: > 100 µM
- TGI [2]: > 100 µM
- TGI [4]: 66.3 µM
- TGI [5]: 63.6 µM
- TGI [6]: > 100 µM
- TGI [7]: > 100 µM
- TGI [8]: 88.1 µM
- TGI [9]: > 100 µM
- TGI [10]: 55.6 µM
